Results as given in patent US20080227780A1, “SOLUBLE EPOXIDE HYDROLASE INHIBITORS” (Arete Therapeutics, Inc., priority 2007, published 2008).

Each molecule was assayed on soluble epoxide hydrolase (sEH) (assay: Fluorescent assay for soluble epoxide hydrolase (CMNPC substrate), percent inhibition at the recited concentration). Settings: Inhibition Conc. 200 nM.
Format: biochemical
How it was run: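 Purified recombinant baculovirus-expressed sEH in 25 mM Bis/Tris HCl pH 7.0 with 0.1 mg/mL BSA; inhibitor serially diluted and preincubated with enzyme 5 min at 30 °C. Reaction started with 5 μM (final) substrate; fluorescence (ex 330/em 465 nm) read every 30 s for 10 min, and velocities give % inhibition.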

Row | Structure (SMILES) | % inh. [%]
1 | CC(C)(C)OC(=O)N1CCC(NC(=O)Nc2ccc(S(C)(=O)=O)cc2)CC1 [Compound 7-49, tert-butyl 4-(3-(4-(methylsulfonyl)phenyl)ureido)piperidine-1-carboxylate] | 83
2 | CC(C)(C)CC(=O)N1CCC(NC(=O)NC23CC4CC(CC(C4)C2)C3)CC1 [Compound 7-72, 1-adamantyl-3-(1-(3,3-dimethylbutanoyl)piperidin-4-yl)urea] | 96
3 | O=C(NC1CCN(S(=O)(=O)CCCO)CC1)NC12CC3CC(CC(C3)C1)C2 [Compound 7-74, 1-adamantyl-3-(1-(3-hydroxypropylsulfonyl)piperidin-4-yl)urea] | 99
4 | COCC(=O)N1CCC(NC(=O)NC23CC4CC(CC(C4)C2)C3)CC1 [Compound 7-76, 1-adamantyl-3-(1-(2-methoxyacetyl)piperidin-4-yl)urea] | 94
5 | CC(C)(C)S(=O)(=O)N1CCC(NC(=O)NC23CC4CC(CC(C4)C2)C3)CC1 [Compound 7-78, 1-(1-(tert-butylsulfonyl)piperidin-4-yl)-3-adamantylurea] | 95
6 | CC(C)(C)C(=O)N1CCC(NC(=O)Nc2ccc(C#N)cc2)CC1 [Compound 7-81, 1-(4-cyanophenyl)-3-(1-pivaloylpiperidin-4-yl)urea] | 91

Other lines, results leading:

Row | % inh. [%] | Structure (SMILES)
7 | 76 | CC(C)(C)OC(=O)N1CCC(NC(=O)NC2CCC2)CC1 [Compound 7-50, tert-butyl 4-(3-cyclobutylureido)piperidine-1-carboxylate]
8 | 94 | CC(C)S(=O)(=O)N1CCC(NC(=O)Nc2ccc(OC(F)(F)F)cc2)CC1 [Compound 7-55, 1-(1-(isopropylsulfonyl)piperidin-4-yl)-3-(4-(trifluoromethoxy)phenyl)urea]
9 | 86 | O=C(NC1CCN(C(=O)NC23CC4CC(CC(C4)C2)C3)CC1)NC12CC3CC(CC(C3)C1)C2 [Compound 7-56, N-adamantyl-4-(3-adamantylureido)piperidine-1-carboxamide]
10 | 90 | CC(=O)N1CCC(NC(=O)N2CCC(NC(=O)NC34CC5CC(CC(C5)C3)C4)CC2)CC1 [Compound 7-57, N-(1-acetylpiperidin-4-yl)-4-(3-adamantylureido)piperidine-1-carboxamide]
11 | 84 | CC(=O)N1CCC(NC(=O)NC23CCC(C)(CC2)CC3)CC1 [Compound 7-58, 1-(1-acetylpiperidin-4-yl)-3-(4-methylbicyclo[2.2.2]octan-1-yl)urea]
12 | 86 | O=C(NC1CCN(C(=O)CCO)CC1)NC12CC3CC(CC(C3)C1)C2 [Compound 7-59, 1-adamantyl-3-(1-(3-hydroxypropanoyl)piperidin-4-yl)urea]
13 | 97 | CC(C)(C)OC(=O)N1CCC(NC(=O)NC2CCCCCCC2)CC1 [Compound 7-64, tert-butyl 4-(3-cyclooctylureido)piperidine-1-carboxylate]
14 | 84 | O=C(Nc1ccc(OC(F)(F)F)cc1)NC1CCN(C(=O)CCCO)CC1 [Compound 7-71, 1-(1-(4-hydroxybutanoyl)piperidin-4-yl)-3-(4-(trifluoromethoxy)phenyl)urea]
15 | 94 | O=C(NC1CCN(C(=O)CCCO)CC1)NC12CC3CC(CC(C3)C1)C2 [Compound 7-73, 1-adamantyl-3-(1-(4-hydroxybutanoyl)piperidin-4-yl)urea]
16 | 100 | O=C(Nc1ccc(OC(F)(F)F)cc1)NC1CCN(S(=O)(=O)CCCO)CC1 [Compound 7-75, 1-(1-(3-hydroxypropylsulfonyl)piperidin-4-yl)-3-(4-(trifluoromethoxy)phenyl)urea]
17 | 99 | CC(C)(C)S(=O)(=O)N1CCC(NC(=O)Nc2ccc(OC(F)(F)F)cc2)CC1 [Compound 7-77, 1-(1-(tert-butylsulfonyl)piperidin-4-yl)-3-(4-(trifluoromethoxy)phenyl)urea]
18 | 98 | O=C(Nc1ccc(OC(F)(F)F)cc1)NC1CCN(C(=O)N2CCOCC2)CC1 [Compound 7-79, 1-(1-(morpholine-4-carbonyl)piperidin-4-yl)-3-(4-(trifluoromethoxy)phenyl)urea]
19 | 95 | O=C(NC1CCN(C(=O)N2CCOCC2)CC1)NC12CC3CC(CC(C3)C1)C2 [Compound 7-82, 1-adamantyl-3-(1-(morpholine-4-carbonyl)piperidin-4-yl)urea]

Same assay, conditions: Inhibition Conc. 500 nM

Row | Structure (SMILES) | % inh. [%]
20 | O=C(NC1CCCCC1)NC1CCN(C(=O)CCCN2CCOCC2)CC1 [Compound 7-61, 1-cyclohexyl-3-(1-(4-morpholinobutanoyl)piperidin-4-yl)urea] | 83

Same assay, conditions: Inhibition Conc. 2000 nM

Row | Structure (SMILES) | % inh. [%]
21 | CC(=O)N1CCC(NC(=O)Nc2ccc(N(C)C)cc2)CC1 [Compound 7-52, 1-(1-acetylpiperidin-4-yl)-3-(4-(dimethylamino)phenyl)urea] | 44
22 | CC(=O)N1CCC(NC(=O)Nc2ccc(C(=O)O)cc2)CC1 [Compound 7-53, 4-(3-(1-acetylpiperidin-4-yl)ureido)benzoic acid] | 17
23 | CC(C)(C)OC(=O)N1CCC(NC(=O)Nc2ccc(C(=O)O)cc2)CC1 [Compound 7-54, 4-(3-(1-(tert-butoxycarbonyl)piperidin-4-yl)ureido)benzoic acid] | 55
24 | CC(=O)N1CCC(NC(=O)Nc2ccc(S(C)(=O)=O)cc2)CC1 [Compound 7-60, 1-(1-acetylpiperidin-4-yl)-3-(4-(methylsulfonyl)phenyl)urea] | 33
25 | CC(=O)N1CCC(NC(=O)NC2CCC(F)(F)CC2)CC1 [Compound 7-62, 1-(1-acetylpiperidin-4-yl)-3-(4,4-difluorocyclohexyl)urea] | 82
26 | CC(=O)N1CCC(NC(=O)NC2CCC2)CC1 [Compound 7-63, 1-(1-acetylpiperidin-4-yl)-3-cyclobutylurea] | 76
27 | CC(C)(C)OC(=O)N1CCC(NC(=O)Nc2ccc(CN3CCCC3)cc2)CC1 [Compound 7-68, tert-butyl 4-(3-(4-(pyrrolidin-1-ylmethyl)phenyl)ureido)piperidine-1-carboxylate] | 93
28 | CC(C)(C)C(=O)N1CCC(NC(=O)Nc2ccc(S(C)(=O)=O)cc2)CC1 [Compound 7-70, 1-(4-(methylsulfonyl)phenyl)-3-(1-pivaloylpiperidin-4-yl)urea] | 90

Now from value to molecule:

Row | % inh. [%] | Structure (SMILES)
29 | 95 | CN(C)c1ccc(NC(=O)NC2CCN(C(=O)OC(C)(C)C)CC2)cc1 [Compound 7-65, tert-butyl 4-(3-(4-(dimethylamino)phenyl)ureido)piperidine-1-carboxylate]
30 | 96 | COC(=O)c1ccc(NC(=O)NC2CCN(C(=O)OC(C)(C)C)CC2)cc1 [Compound 7-67, tert-butyl 4-(3-(4-(methoxycarbonyl)phenyl)ureido)piperidine-1-carboxylate]
31 | 69 | COC(=O)c1ccc(NC(=O)NC2CCN(C(C)=O)CC2)cc1 [Compound 7-69, methyl 4-(3-(1-acetylpiperidin-4-yl)ureido)benzoate]
32 | 80 | CC(=O)N1CCC(NC(=O)Nc2ccc(C#N)cc2)CC1 [Compound 7-80, 1-(1-acetylpiperidin-4-yl)-3-(4-cyanophenyl)urea]
